PMC8550792, “Evolution of kinase polypharmacology across HSP90 drug discovery” (Cell Chemical Biology, 2021)

What was measured:
Experiment in all cases: biochemical
Format in all cases: biochemical
382 unique human kinases [1] = target: T1, 382 unique human kinases (Homo sapiens, UniProt O96017, I157T); details: CHK2 (I157T), 10 uM; for remaining activity at 10 µM: read-out: % Enzyme Activity (relative to DMSO controls)
T1 construct: purchased Reaction Biology (HotSpot contract assay)

382 unique human kinases [2] = target: T2, 382 unique human kinases (Homo sapiens, UniProt P10721); details: c-Kit, 10 uM; for remaining activity at 10 µM: read-out: % Enzyme Activity (relative to DMSO controls)
T2 construct: purchased Reaction Biology (HotSpot contract assay)

382 unique human kinases [3] = target: T3, 382 unique human kinases (Homo sapiens, UniProt Q13188); details: kinase MST2/STK3, compound 10 uM; for remaining activity at 10 µM: read-out: % Enzyme Activity (relative to DMSO controls)
T3 construct: purchased Reaction Biology (HotSpot contract assay)
T3 sequence (Q13188 1-491): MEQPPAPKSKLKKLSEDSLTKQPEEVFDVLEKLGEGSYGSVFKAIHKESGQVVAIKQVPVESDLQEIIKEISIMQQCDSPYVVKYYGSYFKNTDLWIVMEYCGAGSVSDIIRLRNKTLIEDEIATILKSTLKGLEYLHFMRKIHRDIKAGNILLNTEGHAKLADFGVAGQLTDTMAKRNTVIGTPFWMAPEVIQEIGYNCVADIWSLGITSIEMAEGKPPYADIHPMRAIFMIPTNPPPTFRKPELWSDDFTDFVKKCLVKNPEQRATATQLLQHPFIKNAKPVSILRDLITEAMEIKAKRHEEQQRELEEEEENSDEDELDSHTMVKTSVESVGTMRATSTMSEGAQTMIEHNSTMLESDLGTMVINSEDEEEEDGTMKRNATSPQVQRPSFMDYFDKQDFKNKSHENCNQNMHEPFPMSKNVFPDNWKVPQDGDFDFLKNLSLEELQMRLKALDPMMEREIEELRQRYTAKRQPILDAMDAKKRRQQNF

382 unique human kinases [4] = target: T4, 382 unique human kinases (Homo sapiens, UniProt Q99683); details: ASK1/MAP3K5, compound at 10 uM, duplicate values; for remaining activity at 10 µM: read-out: % Enzyme Activity (relative to DMSO controls)
T4 construct: purchased Reaction Biology (HotSpot contract assay)
T4 sequence (Q99683 1-1374): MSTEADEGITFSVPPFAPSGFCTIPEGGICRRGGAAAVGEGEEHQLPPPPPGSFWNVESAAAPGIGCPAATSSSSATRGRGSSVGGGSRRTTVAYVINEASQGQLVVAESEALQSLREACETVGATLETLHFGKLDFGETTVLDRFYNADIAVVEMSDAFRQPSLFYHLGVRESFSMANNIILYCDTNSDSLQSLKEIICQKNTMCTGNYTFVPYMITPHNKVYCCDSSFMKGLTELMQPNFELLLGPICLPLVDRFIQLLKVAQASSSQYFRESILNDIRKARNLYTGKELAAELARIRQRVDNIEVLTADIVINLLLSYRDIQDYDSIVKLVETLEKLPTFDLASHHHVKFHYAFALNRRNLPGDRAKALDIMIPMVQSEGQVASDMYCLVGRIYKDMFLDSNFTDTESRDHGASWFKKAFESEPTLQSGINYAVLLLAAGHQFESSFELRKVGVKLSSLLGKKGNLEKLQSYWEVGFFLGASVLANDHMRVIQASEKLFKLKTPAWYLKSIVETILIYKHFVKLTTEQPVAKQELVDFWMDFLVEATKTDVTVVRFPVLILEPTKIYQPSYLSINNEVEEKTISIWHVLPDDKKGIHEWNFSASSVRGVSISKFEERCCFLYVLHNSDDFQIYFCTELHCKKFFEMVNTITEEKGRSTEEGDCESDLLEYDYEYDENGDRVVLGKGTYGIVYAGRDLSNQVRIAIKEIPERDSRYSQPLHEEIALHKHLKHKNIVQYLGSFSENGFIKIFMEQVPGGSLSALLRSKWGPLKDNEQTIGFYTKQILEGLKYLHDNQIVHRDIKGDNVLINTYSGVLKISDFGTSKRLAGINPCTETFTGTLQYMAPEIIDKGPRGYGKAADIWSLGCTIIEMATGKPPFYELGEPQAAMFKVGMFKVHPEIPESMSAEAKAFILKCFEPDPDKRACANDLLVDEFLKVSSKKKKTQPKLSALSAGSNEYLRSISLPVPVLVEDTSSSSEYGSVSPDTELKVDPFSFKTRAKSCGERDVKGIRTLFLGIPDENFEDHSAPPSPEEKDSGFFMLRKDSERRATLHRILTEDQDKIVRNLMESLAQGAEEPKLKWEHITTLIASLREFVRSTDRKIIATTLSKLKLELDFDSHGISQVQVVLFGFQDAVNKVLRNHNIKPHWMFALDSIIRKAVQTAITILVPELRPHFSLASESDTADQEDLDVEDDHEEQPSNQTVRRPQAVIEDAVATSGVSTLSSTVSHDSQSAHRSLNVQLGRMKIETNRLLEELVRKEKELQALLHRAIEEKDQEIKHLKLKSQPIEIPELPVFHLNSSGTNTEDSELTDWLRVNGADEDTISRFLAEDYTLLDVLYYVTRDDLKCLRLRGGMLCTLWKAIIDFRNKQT

382 unique human kinases [5] = target: T5, 382 unique human kinases (Homo sapiens, UniProt Q99986); details: VRK1, 10 uM; for remaining activity at 10 µM: read-out: % Enzyme Activity (relative to DMSO controls)
T5 construct: purchased Reaction Biology (HotSpot contract assay)
T5 sequence (Q99986 1-396): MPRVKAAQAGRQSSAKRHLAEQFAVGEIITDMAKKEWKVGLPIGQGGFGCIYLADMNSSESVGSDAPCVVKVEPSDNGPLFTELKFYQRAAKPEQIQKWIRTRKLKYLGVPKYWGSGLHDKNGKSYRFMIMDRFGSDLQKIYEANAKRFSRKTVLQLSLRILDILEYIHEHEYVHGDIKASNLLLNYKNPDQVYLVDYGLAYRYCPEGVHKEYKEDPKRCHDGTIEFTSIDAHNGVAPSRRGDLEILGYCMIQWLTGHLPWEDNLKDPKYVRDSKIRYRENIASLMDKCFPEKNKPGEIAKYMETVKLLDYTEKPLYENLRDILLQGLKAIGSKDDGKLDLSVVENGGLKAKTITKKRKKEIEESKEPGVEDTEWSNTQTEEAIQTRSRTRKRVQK

382 unique human kinases [6] = target: T6, 382 unique human kinases (Homo sapiens, UniProt Q9UM73); details: ALK, 10 uM; for remaining activity at 10 µM: read-out: % Enzyme Activity (relative to DMSO controls)
T6 construct: purchased Reaction Biology (HotSpot contract assay)

382 unique human kinases [7] = target: T7, 382 unique human kinases (Homo sapiens, UniProt Q9Y6M4); details: kinase CK1g3, compound 10 uM; for remaining activity at 10 µM: read-out: % Enzyme Activity (relative to DMSO controls)
T7 construct: purchased Reaction Biology (HotSpot contract assay)

382 unique human kinases [8] = target: T8, 382 unique human kinases (Homo sapiens, UniProt P31749, E17K); details: AKT1 (E17K), 10 uM; for remaining activity at 10 µM: read-out: % Enzyme Activity (relative to DMSO controls)
T8 construct: purchased Reaction Biology (HotSpot contract assay)

382 unique human kinases [9] = target: T9, 382 unique human kinases (Homo sapiens, UniProt Q06187); details: BTK, [ATP] 50 µM, compound 10 uM; for remaining activity at 10 µM: read-out: % Enzyme Activity (relative to DMSO controls)
T9 construct: purchased Reaction Biology (HotSpot contract assay)

382 unique human kinases [10] = target: T10, 382 unique human kinases (Homo sapiens, UniProt Q16654); details: PDK4/PDKH4, [ATP] 30 µM
T10 construct: purchased Reaction Biology (HotSpot contract assay)

[11] = compound 10 uM, read-out: % Enzyme Activity (relative to DMSO controls)

T2 sequence (P10721 26-976): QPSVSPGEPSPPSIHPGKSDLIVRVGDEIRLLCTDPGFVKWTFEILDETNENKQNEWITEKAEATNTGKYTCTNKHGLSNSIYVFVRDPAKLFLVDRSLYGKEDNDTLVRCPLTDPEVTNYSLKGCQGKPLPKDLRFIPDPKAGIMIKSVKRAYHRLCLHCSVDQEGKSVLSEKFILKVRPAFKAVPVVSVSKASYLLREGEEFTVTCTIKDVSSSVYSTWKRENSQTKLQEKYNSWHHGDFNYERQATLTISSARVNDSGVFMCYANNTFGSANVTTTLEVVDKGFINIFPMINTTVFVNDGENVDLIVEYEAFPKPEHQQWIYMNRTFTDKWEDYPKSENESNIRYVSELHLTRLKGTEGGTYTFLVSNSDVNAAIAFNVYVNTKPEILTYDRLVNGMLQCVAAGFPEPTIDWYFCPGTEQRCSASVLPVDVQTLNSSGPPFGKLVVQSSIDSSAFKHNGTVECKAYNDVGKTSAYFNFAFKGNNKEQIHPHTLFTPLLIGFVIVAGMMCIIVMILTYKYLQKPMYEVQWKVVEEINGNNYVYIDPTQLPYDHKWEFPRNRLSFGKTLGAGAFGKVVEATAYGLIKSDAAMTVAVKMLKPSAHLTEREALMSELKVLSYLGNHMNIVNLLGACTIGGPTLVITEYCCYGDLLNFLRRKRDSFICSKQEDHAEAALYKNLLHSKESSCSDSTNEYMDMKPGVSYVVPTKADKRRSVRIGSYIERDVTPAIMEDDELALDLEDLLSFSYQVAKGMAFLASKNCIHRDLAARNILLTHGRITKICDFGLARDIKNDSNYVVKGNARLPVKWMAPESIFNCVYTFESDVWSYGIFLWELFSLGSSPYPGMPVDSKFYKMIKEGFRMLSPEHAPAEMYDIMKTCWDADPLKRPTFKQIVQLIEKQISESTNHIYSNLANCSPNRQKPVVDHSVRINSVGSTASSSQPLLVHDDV
T7 sequence (Q9Y6M4 whole entry): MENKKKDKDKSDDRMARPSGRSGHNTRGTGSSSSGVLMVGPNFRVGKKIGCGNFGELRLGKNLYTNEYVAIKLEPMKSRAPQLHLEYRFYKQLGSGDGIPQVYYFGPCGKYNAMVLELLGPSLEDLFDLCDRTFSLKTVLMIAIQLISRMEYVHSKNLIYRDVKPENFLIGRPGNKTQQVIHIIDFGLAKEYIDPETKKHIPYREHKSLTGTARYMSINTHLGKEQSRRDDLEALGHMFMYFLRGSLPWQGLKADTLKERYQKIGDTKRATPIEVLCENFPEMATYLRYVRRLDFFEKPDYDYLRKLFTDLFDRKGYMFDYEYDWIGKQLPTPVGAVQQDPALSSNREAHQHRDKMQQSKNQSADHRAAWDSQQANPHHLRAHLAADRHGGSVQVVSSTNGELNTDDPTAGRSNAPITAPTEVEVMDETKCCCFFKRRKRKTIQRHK
T1 sequence (O96017 whole entry I157T): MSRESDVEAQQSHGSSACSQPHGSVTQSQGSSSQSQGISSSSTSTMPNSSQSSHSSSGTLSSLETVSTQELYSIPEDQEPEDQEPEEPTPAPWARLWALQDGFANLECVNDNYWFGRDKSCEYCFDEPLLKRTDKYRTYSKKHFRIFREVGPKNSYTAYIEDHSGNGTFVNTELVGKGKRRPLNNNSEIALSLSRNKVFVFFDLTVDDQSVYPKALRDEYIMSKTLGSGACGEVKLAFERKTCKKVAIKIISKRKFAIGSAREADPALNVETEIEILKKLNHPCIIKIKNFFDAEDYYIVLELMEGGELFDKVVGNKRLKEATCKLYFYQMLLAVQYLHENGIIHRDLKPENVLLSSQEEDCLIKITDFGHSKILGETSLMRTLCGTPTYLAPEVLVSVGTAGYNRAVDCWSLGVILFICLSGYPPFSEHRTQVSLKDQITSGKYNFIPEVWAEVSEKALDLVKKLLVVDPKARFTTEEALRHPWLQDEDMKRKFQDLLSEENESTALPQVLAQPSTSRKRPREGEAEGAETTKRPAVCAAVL
T6 sequence (Q9UM73 19-1620): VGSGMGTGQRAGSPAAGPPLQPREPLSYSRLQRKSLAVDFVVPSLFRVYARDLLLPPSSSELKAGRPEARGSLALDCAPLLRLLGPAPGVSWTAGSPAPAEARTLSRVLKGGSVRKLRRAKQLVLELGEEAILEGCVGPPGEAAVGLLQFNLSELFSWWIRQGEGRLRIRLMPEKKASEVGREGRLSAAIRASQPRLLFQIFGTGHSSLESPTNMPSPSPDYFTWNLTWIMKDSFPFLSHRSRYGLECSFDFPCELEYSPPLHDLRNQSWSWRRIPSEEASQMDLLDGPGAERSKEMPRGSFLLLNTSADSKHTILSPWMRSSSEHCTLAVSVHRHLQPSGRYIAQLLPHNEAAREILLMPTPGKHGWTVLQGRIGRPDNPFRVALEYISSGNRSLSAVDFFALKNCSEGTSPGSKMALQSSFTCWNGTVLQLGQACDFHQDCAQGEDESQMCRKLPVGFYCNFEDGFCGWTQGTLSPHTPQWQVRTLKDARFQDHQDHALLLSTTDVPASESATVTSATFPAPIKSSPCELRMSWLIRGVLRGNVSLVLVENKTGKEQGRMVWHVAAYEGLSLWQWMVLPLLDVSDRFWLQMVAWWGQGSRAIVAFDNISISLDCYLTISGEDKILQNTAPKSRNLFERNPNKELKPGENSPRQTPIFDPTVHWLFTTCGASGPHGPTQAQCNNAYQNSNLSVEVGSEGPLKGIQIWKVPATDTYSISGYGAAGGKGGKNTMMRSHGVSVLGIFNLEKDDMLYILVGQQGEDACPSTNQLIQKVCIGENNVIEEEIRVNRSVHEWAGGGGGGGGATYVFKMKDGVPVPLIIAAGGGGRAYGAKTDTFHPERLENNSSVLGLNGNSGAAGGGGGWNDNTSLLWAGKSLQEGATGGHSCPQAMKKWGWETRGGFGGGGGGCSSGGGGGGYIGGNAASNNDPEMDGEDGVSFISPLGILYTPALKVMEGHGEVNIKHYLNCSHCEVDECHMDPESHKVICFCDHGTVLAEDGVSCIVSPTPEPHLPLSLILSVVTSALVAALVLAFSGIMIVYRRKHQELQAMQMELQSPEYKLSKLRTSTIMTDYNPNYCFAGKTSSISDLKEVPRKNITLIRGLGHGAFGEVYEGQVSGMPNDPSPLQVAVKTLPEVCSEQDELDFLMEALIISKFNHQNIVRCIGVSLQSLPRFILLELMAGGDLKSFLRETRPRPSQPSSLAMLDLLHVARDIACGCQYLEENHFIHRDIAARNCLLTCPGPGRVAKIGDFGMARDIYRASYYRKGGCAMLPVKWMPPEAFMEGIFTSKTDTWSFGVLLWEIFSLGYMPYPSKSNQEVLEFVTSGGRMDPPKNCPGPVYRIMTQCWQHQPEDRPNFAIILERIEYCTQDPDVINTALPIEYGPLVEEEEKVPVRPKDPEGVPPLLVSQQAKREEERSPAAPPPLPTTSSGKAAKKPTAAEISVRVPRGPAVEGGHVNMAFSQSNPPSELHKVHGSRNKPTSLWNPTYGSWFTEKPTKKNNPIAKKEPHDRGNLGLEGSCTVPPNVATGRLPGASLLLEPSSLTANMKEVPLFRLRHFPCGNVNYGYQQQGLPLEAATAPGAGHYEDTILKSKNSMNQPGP
T8 sequence (P31749 whole entry E17K): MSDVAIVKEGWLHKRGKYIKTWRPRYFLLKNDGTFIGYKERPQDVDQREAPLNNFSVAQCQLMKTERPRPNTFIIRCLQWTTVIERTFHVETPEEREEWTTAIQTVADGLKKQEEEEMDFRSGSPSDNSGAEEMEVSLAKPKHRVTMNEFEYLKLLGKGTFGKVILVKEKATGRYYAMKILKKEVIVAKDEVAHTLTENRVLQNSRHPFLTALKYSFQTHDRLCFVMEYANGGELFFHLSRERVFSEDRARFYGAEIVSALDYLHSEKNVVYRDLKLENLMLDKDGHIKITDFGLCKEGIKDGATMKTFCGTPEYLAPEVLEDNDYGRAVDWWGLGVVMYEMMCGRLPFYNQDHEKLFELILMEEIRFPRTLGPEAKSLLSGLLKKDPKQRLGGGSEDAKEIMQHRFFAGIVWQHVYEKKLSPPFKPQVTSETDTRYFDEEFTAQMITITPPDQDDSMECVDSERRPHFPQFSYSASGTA
T9 sequence (Q06187 whole entry): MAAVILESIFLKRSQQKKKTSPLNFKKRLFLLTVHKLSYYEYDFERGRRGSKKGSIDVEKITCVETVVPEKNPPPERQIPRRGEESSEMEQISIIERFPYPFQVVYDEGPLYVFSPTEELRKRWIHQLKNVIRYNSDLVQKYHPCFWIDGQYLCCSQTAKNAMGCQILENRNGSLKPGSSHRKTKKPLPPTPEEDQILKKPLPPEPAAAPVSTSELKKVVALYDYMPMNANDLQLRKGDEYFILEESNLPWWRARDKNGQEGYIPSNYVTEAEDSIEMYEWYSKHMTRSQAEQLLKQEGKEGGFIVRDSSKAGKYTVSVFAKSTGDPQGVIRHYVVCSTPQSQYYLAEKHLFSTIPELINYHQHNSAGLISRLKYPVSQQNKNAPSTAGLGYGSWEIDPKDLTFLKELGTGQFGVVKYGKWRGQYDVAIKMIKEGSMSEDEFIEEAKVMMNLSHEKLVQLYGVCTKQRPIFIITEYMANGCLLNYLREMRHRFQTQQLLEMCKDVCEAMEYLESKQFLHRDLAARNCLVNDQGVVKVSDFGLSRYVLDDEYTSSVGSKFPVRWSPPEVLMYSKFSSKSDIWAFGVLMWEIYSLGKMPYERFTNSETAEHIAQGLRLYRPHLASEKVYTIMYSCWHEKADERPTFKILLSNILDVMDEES

Row | Structure (SMILES) | remaining activity at 10 µM (382 unique human kinases [1]) [%] | remaining activity at 10 µM (382 unique human kinases [2]) [%] | remaining activity at 10 µM (382 unique human kinases [3]) [%] | remaining activity at 10 µM (382 unique human kinases [4]) [%] | remaining activity at 10 µM (382 unique human kinases [5]) [%] | remaining activity at 10 µM (382 unique human kinases [6]) [%] | remaining activity at 10 µM (382 unique human kinases [7]) [%] | remaining activity at 10 µM (382 unique human kinases [8]) [%] | remaining activity at 10 µM (382 unique human kinases [9]) [%] | remaining activity at 10 µM (382 unique human kinases [10]; [11]) [%] | further results
1 | CC(C)c1cc(-c2n[nH]c(=O)n2-c2ccc3c(ccn3C)c2)c(O)cc1O [Ganetespib (STA9090)] | 76.6 | 80.8 | 78.8 | 110 | 75.3 | 67.5 | 82 |  |  |  | 
2 | CC(C)c1cc(-c2n[nH]c(=O)n2-c2ccc3c(ccn3C)c2)c(O)cc1O [Ganetespib] |  |  |  |  |  |  |  | 94.2 | 56 | 6.83 | remaining activity at 1 µM (382 unique human kinases [10]; compound 1 uM, read-out: % Enzyme Activity (relative to DMSO controls)): 26.8%
3 | CCNC(=O)c1noc(-c2cc(C(C)C)c(O)cc2O)c1-c1ccc(CN2CCOCC2)cc1 [Luminespib (AUY-922)] | 102 | 72.9 | 93.3 | 106 | 87 | 97.2 | 99.7 |  |  |  | % Enzyme Activity (relative to DMSO controls) (382 unique human kinases [1]): 100.31%; % Enzyme Activity (relative to DMSO controls) (382 unique human kinases [2]): 72.90%; % Enzyme Activity (relative to DMSO controls) (382 unique human kinases [3]): 89.89%; % Enzyme Activity (relative to DMSO controls) (382 unique human kinases [4]): 105.53%; % Enzyme Activity (relative to DMSO controls) (382 unique human kinases [5]): 84.23%; % Enzyme Activity (relative to DMSO controls) (382 unique human kinases [6]): 95.41%; % Enzyme Activity (relative to DMSO controls) (382 unique human kinases [7]): 98.54%
4 | CCNC(=O)c1noc(-c2cc(C(C)C)c(O)cc2O)c1-c1ccc(CN2CCOCC2)cc1 [Luminespib] |  |  |  |  |  |  |  | 101 | 74.9 | 29.9 | % Enzyme Activity (relative to DMSO controls) (382 unique human kinases [8]): 93.12%; % Enzyme Activity (relative to DMSO controls) (382 unique human kinases [9]): 74.40%; % Enzyme Activity (relative to DMSO controls) (382 unique human kinases [10]; compound 10 uM): 27.75%
